Assay results reported in patent publication US20230357239A1, “PYRIDO[2,3-D]PYRIMIDIN-4-AMINES AS SOS1 INHIBITORS” (Bayer Aktiengesellschaft, priority 2020, published 2023).

Biological target: human SOS1 (SOS1) with human K-RasG12C (Homo sapiens (Human), UniProt Q07889)
Test: hK-RasG12C interaction assay with hSOS1 (HTRF)
Type: binding
Details: GST-hK-RasG12C and His-hSOS1, 60 min incubation at 20° C, mean, read-out: K-RasG12C - SOS interaction assay IC50 - [mol/l] (mean)
Experimental: Biochemical Assay: hK-RasG12C Interaction Assay with hSOS1
This assay quantifies the equilibrium interaction of human SOS1 (SOS1) with human K-Ras^G12C (K-RasG12C). Detection of the interaction is achieved by measuring homogenous time-resolved fluorescence resonance energy transfer (HTRF) from antiGST-Europium (FRET donor) bound to GST-K-RasG12C to anti-6His-XL665 bound to His-tagged hSOS1 (FRET-acceptor).
The assay buffer containes 5 mM HEPES pH 7.4 (Applichem), 150 mM NaCl (Sigma), 10 mM EDTA (Promega), 1 mM DTT (Thermofisher), 0.05% BSA Fraction V, pH 7.0, (ICN Biomedicals), 0.0025% (v/v) Igepal (Sigma) and 100 mM KF (FLUKA).
Concentrations of protein batches used are optimized to be within the linear range of the HTRF signal. A Ras working solution is prepared in assay buffer containing typically 10 nM GST-hK-RasG12C and 2 nM antiGST-Eu(K) (Cisbio, France). A SOS1 working solution is prepared in assay buffer containing typically 20 nM His-hSOS1 and 10 nM anti-6His-XL665 (Cisbio, France). An inhibitor control solution is prepared in assay buffer containing 10 nM anti-6His-XL665 without SOS1.
Fifty nl of a 100-fold concentrated solution of the test compound in DMSO are transferred into a black microtiter test plate (384 or 1536, Greiner Bio-One, Germany).
For this, either a Hummingbird liquid handler (Digilab, MA, USA) or an Echo acoustic system (Labcyte, CA, USA) is used.
All steps of the assay are performed at 20° C. A volume of 2.5 μl of the Ras working solution is added to all wells of the test plate using a Multidrop dispenser (Thermo Labsystems). After 2 min preincubation, 2.5 μl of the SOS1 working solution are added to all wells except for those wells at the side of the test plate that are subsequently filled with 2.5 μl of the inhibitor control solution. After 60 min incubation the fluorescence is measured with a Pherastar (BMG, Germany) using the HTRF module (excitation 337 nm, emission 1: 620 nm, emission 2: 665 nm).
The ratiometric data (emission 2 divided by emission 1) are normalized using the controls (DMSO=0% inhibition, inhibition control wells with inhibitor control solution=100% inhibition). […] IC50 values are calculated by 4-Parameter fitting using a commercial software package (Genedata Screener, Switzerland).

Chain of human SOS1 (SOS1) with human K-RasG12C (Q07889 564-1049): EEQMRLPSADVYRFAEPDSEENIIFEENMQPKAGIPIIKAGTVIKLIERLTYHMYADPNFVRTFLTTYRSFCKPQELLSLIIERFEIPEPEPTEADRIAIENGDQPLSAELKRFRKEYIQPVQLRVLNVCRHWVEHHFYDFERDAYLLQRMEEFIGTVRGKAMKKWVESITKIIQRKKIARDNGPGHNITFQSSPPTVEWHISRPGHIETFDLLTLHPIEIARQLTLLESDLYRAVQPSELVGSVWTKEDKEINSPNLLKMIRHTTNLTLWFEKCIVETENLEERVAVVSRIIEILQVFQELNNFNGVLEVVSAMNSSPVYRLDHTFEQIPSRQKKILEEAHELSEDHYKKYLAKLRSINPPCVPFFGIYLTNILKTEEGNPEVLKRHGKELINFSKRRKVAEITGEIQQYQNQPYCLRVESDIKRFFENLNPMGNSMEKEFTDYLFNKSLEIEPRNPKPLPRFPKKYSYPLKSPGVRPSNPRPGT

In order of falling IC50:
1. COc1nc2nc(C)nc(N[C@H](C)c3cccc(C(F)(F)F)c3C)c2cc1N1CC2(CN(C(C)=O)C2)C1 [Example 20, 1-{6-[7-methoxy-2-methyl-4-({(1R)-1-[2-methyl-3-(trifluoromethyl)phenyl]ethyl}amino)pyrido[2,3-d]pyrimidin-6-yl]-2,6-diazaspiro[3.3]heptan-2-yl}ethan-1-one]  348 nM
2. Cc1nc(N[C@H](C)c2cccc(C(F)(F)F)c2C)c2cc(Br)cnc2n1 [Example 6, 6-bromo-2-methyl-N-{(1R)-1-[2-methyl-3-(trifluoromethyl)phenyl]ethyl}pyrido[2,3-d]pyrimidin-4-amine]  251 nM
3. COc1cnc2nc(C)nc(N[C@H](C)c3cccc(C(F)(F)F)c3C)c2c1 [Example 32, 6-methoxy-2-methyl-N-{(1R)-1-[2-methyl-3-(trifluoromethyl)phenyl]ethyl}pyrido[2,3-d]pyrimidin-4-amine]  66.4 nM
4. COc1cc2c(N[C@H](C)c3cccc(C(F)(F)F)c3C)nc(C)nc2nc1C [Example 38, 6-methoxy-2,7-dimethyl-N-{(1R)-1-[2-methyl-3-(trifluoromethyl)phenyl]ethyl}pyrido[2,3-d]pyrimidin-4-amine]  46.3 nM
5. CC(=O)N1CCC(c2cc3c(N[C@H](C)c4cccc(C(F)(F)F)c4C)nc(C)nc3nc2C(F)(F)F)CC1 [Example 42, 1-{4-[2-methyl-4-({(1R)-1-[2-methyl-3-(trifluoromethyl)phenyl]ethyl}amino)-7-(trifluoromethyl)pyrido[2,3-d]pyrimidin-6-yl]piperidin-1-yl}ethan-1-one]  28.9 nM
6. CC(=O)N1CC2(C1)CN(c1cnc3nc(C)nc(N[C@H](C)c4cccc(C(F)F)c4F)c3c1)C2 [Example 29, 1-{6-[4-({(1R)-1-[3-(difluoromethyl)-2-fluorophenyl]ethyl}amino)-2-methylpyrido[2,3-d]pyrimidin-6-yl]-2,6-diazaspiro[3.3]heptan-2-yl}ethan-1-one]  25.6 nM
7. Cc1nc(N[C@H](C)c2cccc(C(F)(F)F)c2C)c2cc(-c3cncnc3)cnc2n1 [Example 45, 2-methyl-N-{(1R)-1-[2-methyl-3-(trifluoromethyl)phenyl]ethyl}-6-(pyrimidin-5-yl)pyrido[2,3-d]pyrimidin-4-amine]  21.1 nM
8. CC(=O)N1CCN(c2cnc3ncnc(N[C@H](C)c4cccc(C(F)(F)F)c4)c3c2)CC1 [Example 4, 1-{4-[4-({(1R)-1-[3-(trifluoromethyl)phenyl]ethyl}amino)pyrido[2,3-d]pyrimidin-6-yl]piperazin-1-yl}ethan-1-one]  16.3 nM
9. Cc1nc(N[C@H](C)c2cccc(C(F)F)c2F)c2cc(N3CCCS3(=O)=O)c(C)nc2n1 [Example 39, 2-[4-({(1R)-1-[3-(difluoromethyl)-2-fluorophenyl]ethyl}amino)-2,7-dimethylpyrido[2,3-d]pyrimidin-6-yl]-1 lambda^6,2-thiazolidine-1,1-dione]  16.2 nM
10. CC(=O)N1CCC(c2cc3c(N[C@H](C)c4cccc(C(F)(F)C(C)(C)O)c4F)nc(C)nc3nc2C)=C(C)C1 [Example 62, 1-{4-[4-({(1R)-1-[3-(1,1-difluoro-2-hydroxy-2-methylpropyl)-2-fluorophenyl]ethyl}amino)-2,7-dimethylpyrido[2,3-d]pyrimidin-6-yl]-5-methyl-3,6-dihydropyridin-1(2H)-yl}ethan-1-one]  14.5 nM
11. CC(=O)N1CCC(c2cnc3nc(C)nc(N[C@H](C)c4cccc(C(F)(F)F)c4C)c3c2)C1 (mixture of isomers) [Example 31, 1-{(3RS)-3-[2-methyl-4-({(1R)-1-[2-methyl-3-(trifluoromethyl)phenyl]ethyl}amino)pyrido[2,3-d]pyrimidin-6-yl]pyrrolidin-1-yl}ethan-1-one]  11.9 nM
12. Cc1nc(N[C@H](C)c2cccc(C(F)(F)F)c2C)c2cc(N3CC4(CN(C(N)=O)C4)C3)cnc2n1 [Example 48, 6-[2-methyl-4-({(1R)-1-[2-methyl-3-(trifluoromethyl)phenyl]ethyl}amino)pyrido[2,3-d]pyrimidin-6-yl]-2,6-diazaspiro[3.3]heptane-2-carboxamide]  9.95 nM
13. CC(=O)N1C[C@H]2C[C@@H]1CN2c1cnc2nc(C)nc(N[C@H](C)c3cccc(C(F)(F)C(C)(C)O)c3F)c2c1 [Example 51, 1-{(1 R,4R)-5-[4-({(1R)-1-[3-(1,1-difluoro-2-hydroxy-2-methylpropyl)-2-fluorophenyl]ethyl}amino)-2-methylpyrido[2,3-d]pyrimidin-6-yl]-2,5-diazabicyclo[2.2.1]heptan-2-yl}ethan-1-one]  9.79 nM
14. CC(=O)N1CC2(CCC(c3cnc4nc(C)nc(N[C@H](C)c5cccc(C(F)(F)F)c5C)c4c3)CC2)C1 [Example 28, 1-{7-[2-methyl-4-({(1R)-1-[2-methyl-3-(trifluoromethyl)phenyl]ethyl}amino)pyrido[2,3-d]pyrimidin-6-yl]-2-azaspiro[3.5]nonan-2-yl}ethan-1-one]  9.4 nM
15. CC(=O)N1CC2(C1)CN(c1cc3c(N[C@H](C)c4cccc(C(F)F)c4F)nc(C)nc3nc1C)C2 [Example 37, 1-{6-[4-({(1R)-1-[3-(difluoromethyl)-2-fluorophenyl]ethyl}amino)-2,7-dimethylpyrido[2,3-d]pyrimidin-6-yl]-2,6-diazaspiro[3.3]heptan-2-yl}ethan-1-one]  8.47 nM
16. CC(=O)N1CC[N+]([O-])(c2cnc3nc(C)nc(N[C@H](C)c4cccc(C(F)(F)F)c4C)c3c2)CC1 [Example 36, 1-{4-[2-methyl-4-({(1R)-1-[2-methyl-3-(trifluoromethyl)phenyl]ethyl}amino)pyrido[2,3-d]pyrimidin-6-yl]-4-oxo-4lambda^5-piperazin-1-yl}ethan-1-one]  6.46 nM
17. CC(=O)N1CC2(C1)CN(c1cnc3nc(C)nc(N[C@H](C)c4cccc(C(F)(F)F)c4C)c3c1)C2 [Example 13, 1-{6-[2-methyl-4-({(1R)-1-[2-methyl-3-(trifluoromethyl)phenyl]ethyl}amino)pyrido[2,3-d]pyrimidin-6-yl]-2,6-diazaspiro[3.3]heptan-2-yl}ethan-1-one-hydrogen chloride (1/1)]  6.35 nM
18. CC(=O)N1CCN(c2cc3c(N[C@H](C)c4cccc(C(F)(F)C(C)(C)O)c4F)nc(C)nc3nc2C)CC1 [Example 67, 1-{4-[4-({(1R)-1-[3-(1,1-difluoro-2-hydroxy-2-methylpropyl)-2-fluorophenyl]ethyl}amino)-2,7-dimethylpyrido[2,3-d]pyrimidin-6-yl]piperazin-1-yl}ethan-1-one]  6.23 nM
19. CC(=O)N1CC=C(c2cc3c(N[C@H](C)c4cccc(C(F)(F)C(C)(C)O)c4F)nc(C)nc3nc2C)CC1 [Example 65, 1-{4-[4-({(1R)-1-[3-(1,1-difluoro-2-hydroxy-2-methylpropyl)-2-fluorophenyl]ethyl}amino)-2,7-dimethylpyrido[2,3-d]pyrimidin-6-yl]-3,6-dihydropyridin-1(2H)-yl}ethan-1-one]  5.72 nM
20. CC(=O)N1C[C@@H]2C[C@H]1CN2c1cc2c(N[C@H](C)c3cccc(C(F)(F)C(C)(C)O)c3F)nc(C)nc2nc1C [Example 64, 1-{(1 S,4S)-5-[4-({(1R)-1-[3-(1,1-difluoro-2-hydroxy-2-methylpropyl)-2-fluorophenyl]ethyl}amino)-2,7-dimethylpyrido[2,3-d]pyrimidin-6-yl]-2,5-diazabicyclo[2.2.1]heptan-2-yl}ethan-1-one]  4.35 nM
21. CC(=O)N1CCN(S(=O)(=O)c2cnc3nc(C)nc(N[C@H](C)c4cccc(C(F)(F)F)c4C)c3c2)CC1 [Example 17, 1-{4-[2-methyl-4-({(1R)-1-[2-methyl-3-(trifluoromethyl)phenyl]ethyl}amino)pyrido[2,3-d]pyrimidine-6-sulfonyl]piperazin-1-yl}ethan-1-one]  3.56 nM
22. CC(=O)N1C[C@@H]2C[C@H]1CN2c1cnc2nc(C)nc(N[C@H](C)c3cccc(C(F)(F)C(C)(C)O)c3F)c2c1 [Example 50, 1-{(1 S,4S)-5-[4-({(1R)-1-[3-(1,1-difluoro-2-hydroxy-2-methylpropyl)-2-fluorophenyl]ethyl}amino)-2-methylpyrido[2,3-d]pyrimidin-6-yl]-2,5-diazabicyclo[2.2.1]heptan-2-yl}ethan-1-one]  2.93 nM
23. CC(=O)N1CC2(C1)CN(c1cc3c(N[C@H](C)c4cccc(C(F)(F)CO)c4F)nc(C)nc3nc1C(F)(F)F)C2 [Example 24, 1-{6-[4-({(1R)-1-[3-(1,1-difluoro-2-hydroxyethyl)-2-fluorophenyl]ethyl}amino)-2-methyl-7-(trifluoromethyl)pyrido[2,3-d]pyrimidin-6-yl]-2,6-diazaspiro[3.3]heptan-2-yl}ethan-1-one]  2.8 nM
